Measured values from US20040171086A1, “Selective modulation of TLR-mediated biological activity” (3M Innovative Properties Company, priority 2003, published 2004).

biological target: T1, TLR6 (Homo sapiens, UniProt Q9Y2C9); experiment: IFN-α1-luciferase reporter assay in genetically modified Namalwa cells, TLR6; format: cell-based; conditions: 10 μM IRM, 18 hours
T1 construct: expressed in transfected cells; host or cells: Namalwa (ATCC CRL-1432), pCI-TLR6 vector, G418 selected
T1 sequence (Q9Y2C9 32-796): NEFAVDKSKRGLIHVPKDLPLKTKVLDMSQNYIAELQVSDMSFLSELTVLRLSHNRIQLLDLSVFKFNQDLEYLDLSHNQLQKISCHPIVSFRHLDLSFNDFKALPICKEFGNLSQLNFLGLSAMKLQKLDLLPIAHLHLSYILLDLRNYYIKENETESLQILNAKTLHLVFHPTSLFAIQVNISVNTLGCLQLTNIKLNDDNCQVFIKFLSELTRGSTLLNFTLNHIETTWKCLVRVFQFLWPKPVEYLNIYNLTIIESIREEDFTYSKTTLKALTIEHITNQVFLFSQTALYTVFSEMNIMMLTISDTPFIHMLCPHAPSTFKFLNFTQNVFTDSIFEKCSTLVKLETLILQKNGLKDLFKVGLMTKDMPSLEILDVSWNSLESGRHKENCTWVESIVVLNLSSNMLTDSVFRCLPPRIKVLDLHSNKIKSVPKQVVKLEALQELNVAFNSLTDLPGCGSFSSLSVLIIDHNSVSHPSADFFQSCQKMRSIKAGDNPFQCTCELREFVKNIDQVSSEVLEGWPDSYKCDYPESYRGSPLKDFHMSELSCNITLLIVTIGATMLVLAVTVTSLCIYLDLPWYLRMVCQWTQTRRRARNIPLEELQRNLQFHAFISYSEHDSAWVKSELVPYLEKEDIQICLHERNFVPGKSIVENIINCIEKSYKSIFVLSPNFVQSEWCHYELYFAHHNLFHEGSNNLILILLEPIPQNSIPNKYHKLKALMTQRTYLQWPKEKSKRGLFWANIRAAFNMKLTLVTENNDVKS
Protocol: Results are shown in Table 6 and are expressed as fold induction of IFN-α1 —induced luciferase signal, again with respect to a vehicle control.
The assay identified TLR6-selective compounds (i.e., compounds that modulate TLR6-mediated activity, but not TLR7-mediated activity), TLR7-selective compounds (compounds that modulate TLR7-mediated activity, but not TLR6-mediated activity), and compounds that modulate cellular activity through both TLR6 and TLR7.
Unless otherwise indicated, all incubations were performed at 37° C. with 5% CO2 at 98% humidity.
Culture medium was prepared from complete RPMI 1640 medium (BioSource International, Inc., Camarillo, Calif.). Fetal bovine serum (Atlas Biologicals, Inc., Ft. Collins, Colo.) was added to a final concentration of 7.5% (vol/vol); L-glutamine (BioSource International, Inc.) was added to 5 mM; and sodium pyruvate (BioSource International, Inc.) was added to 1 mM.
Namalwa cells were grown by incubation in culture medium overnight. Cells were harvested by centrifugation in a tabletop centrifuge (1200 RPM for 5 minutes), and then resuspended in phosphate buffered sucrose to a concentration of 1.3×10^7 cells/mL.
For each transfection, a 750 μL aliquot of the cell suspension was placed in an electroporation cuvette with 4 mm gaps. 10 μg of the pIFN-α1-luc vector and 10 μg of the pCI-TLR6 vector were added to the electroporation cuvette. The cell and vector mixtures were incubated at room temperature for 5 minutes. The cells were electroporated using a BioRad Gene Pulser (BioRad Laboratories, Hercules, Calif.) set to at 500 μF capacitance and […], then incubated at room temperature for 5 minutes.
The electroporated cells were suspended in 10 mLs of culture medium and incubated overnight. Dead cells and debris were removed after 24 hours using a MACS Dead Cell Removal kit (Miltenyi Biotec, Auburn, Calif.). Cells were resuspended in 10 mL of culture medium and incubated for an additional 24 hours.
Transfected cells were selected by adding G418 (Promega Corp., Madison, Wis.) to a final concentration of 1 mg/mL and incubating the cells for seven days.
The selected transfected cells were counted and resuspended to a concentration of 1×10^6 cell per mL in culture medium. 100 μl aliquots of cells were placed in the wells of a white-walled, white-bottomed 96-well plate (Corning, Inc., Corning, N.Y.). 1.0 μL of an IRM compound from Table 1 (prepared at 1 mM in 100% DMSO) was added to some cell aliquots so that the final concentration of IRM compound was 10 μM. As a positive control, some cell aliquots were incubated with Sendai virus instead of IRM compound. As a negative control, some cell aliquots were incubated with DMSO without IRM compound. In all cases, the cells were incubated for 18 hours.
The plates were equilibrated to room temperature before one volume of reconstituted LucLight Plus (Packard Instruments, Meriden, Conn.) was added to each aliquot of cells. Each well of the plate was read on an LJL Analyst (LJL Biosystems, Inc., Sunnyvale, Calif.) set with a 5 minute dark adapt. Results are shown in Table 6 and are expressed as fold increase of the IFN-αl—induced luciferase signal compared to a DMSO control.

TLR6: fold increase of the IFN-α1-induced luciferase signal compared to a DMSO control	SMILES
17.98 fold increase	CCC(C)NC(=S)NCCn1c(CCOC)nc2c(N)nc3ccccc3c21 (stereo not drawn) [IRM21, N-{2-[4-amino-2-(2-methoxyethyl)-1H-imidazo[4,5-c]quinolin-1-yl]ethyl}-N′-sec-butylthiourea]
2.73 fold increase	CCc1nc2c(N)nc3ccccc3c2n1CCCCSc1cc(Cl)cc(Cl)c1 [IRM14, 1-{4-[(3,5-dichlorophenyl)thio]butyl}-2-ethyl-1H-imidazo[4,5-c]quinolin-4-amine]
16.25 fold increase	COCCc1nc2c(N)nc3c(c2n1CC(C)(C)NS(C)(=O)=O)CCCC3 [IRM22, N-{2-[4-amino-2-(2-methoxyethyl)-6,7,8,9-tetrahydro-1H-imidazo[4,5-c]quinolin-1-yl]-1,1-dimethylethyl}methanesulfonamide]
7.93 fold increase	CCOCc1nc2c(N)nc3ccccc3c2n1CC(C)C [IRM1, 2-(ethoxymethyl)-1-(2-methylpropyl)-1H-imidazo[4,5-c]quinolin-4-amine]
12.49 fold increase	CCc1nc2c(N)nc3ccccc3c2n1CCCCNC(=O)C1CCCCC1 [IRM8, N-[4-(4-amino-2-ethyl-1H-imidazo[4,5-c]quinolin-1-yl)butyl]cyclohexanecarboxamide]
10.24 fold increase	COCCc1nc2c(N)nc3ccccc3c2n1CCOCCN(C)C(=O)C1CCCCC1 [IRM3, N-(2-{2-[4-amino-2-(2-methoxyethyl)-1H-imidazo[4,5-c]quinolin-1-yl]ethoxy}ethyl)-N-methylcyclohexanecarboxamide]
13.61 fold increase	CCCCc1nc2c(N)nc3ccccc3c2n1CCCCCS(C)(=O)=O [IRM6, 2-butyl-1-[5-(methylsulfonyl)pentyl]-1H-imidazo[4,5-c]quinolin-4-amine]
12.95 fold increase	CCOCc1nc2c(N)nc3c(c2n1CC(C)(C)O)CCCC3 [IRM16, 4-amino-2-ethoxymethyl-α,α-dimethyl-6,7,8,9-tetrahydro-1H-imidazo[4,5-c]quinoline-1-ethanol]
12.60 fold increase	COCCc1nc2c(N)nc3ccccc3c2n1CCOCCNC(=O)Nc1ccccc1 [IRM19, N-(2-{2-[4-amino-2-(2-methoxyethyl)-1H-imidazo[4,5-c]quinolin-1-yl)ethoxy}ethyl)-N′-phenylurea]
